Laboratory results taken from the kinase profiling compilation of Christmann-Franck et al. (2016).

What was measured:
Test in all cases: radiometric filter-binding kinase assay, Kinase HotSpot
Settings in all cases: compound 0.5 µM; ATP 10 µM
BRSK2 (human) = BRSK2 (human) (UniProt Q8IWQ3)
TEC (human) = TEC (human) (UniProt P42680)
WNK2 (human) = WNK2 (human) (UniProt Q9Y3S1)
CDK7 CCNH MNAT1 (human) = CDK7 CCNH MNAT1 (human) (UniProt P50613+P51948+P51946)
ACVRL1 (human) = ACVRL1 (human) (UniProt P37023)
CAMK2G (human) = CAMK2G (human) (UniProt Q13555)
SLK (human) = SLK (human) (UniProt Q9H2G2)
MAP3K10 (human) = MAP3K10 (human) (UniProt Q02779)
MAP4K5 (human) = MAP4K5 (human) (UniProt Q9Y4K4)
CSNK1A1 (human) = CSNK1A1 (human) (UniProt P48729)
RPS6KA2 KD1 KD2 (human) = RPS6KA2 KD1 KD2 (human) (UniProt Q15349)
MERTK (human) = MERTK (human) (UniProt Q12866)
MERTK (human), sequence (Q12866 whole entry, looked up): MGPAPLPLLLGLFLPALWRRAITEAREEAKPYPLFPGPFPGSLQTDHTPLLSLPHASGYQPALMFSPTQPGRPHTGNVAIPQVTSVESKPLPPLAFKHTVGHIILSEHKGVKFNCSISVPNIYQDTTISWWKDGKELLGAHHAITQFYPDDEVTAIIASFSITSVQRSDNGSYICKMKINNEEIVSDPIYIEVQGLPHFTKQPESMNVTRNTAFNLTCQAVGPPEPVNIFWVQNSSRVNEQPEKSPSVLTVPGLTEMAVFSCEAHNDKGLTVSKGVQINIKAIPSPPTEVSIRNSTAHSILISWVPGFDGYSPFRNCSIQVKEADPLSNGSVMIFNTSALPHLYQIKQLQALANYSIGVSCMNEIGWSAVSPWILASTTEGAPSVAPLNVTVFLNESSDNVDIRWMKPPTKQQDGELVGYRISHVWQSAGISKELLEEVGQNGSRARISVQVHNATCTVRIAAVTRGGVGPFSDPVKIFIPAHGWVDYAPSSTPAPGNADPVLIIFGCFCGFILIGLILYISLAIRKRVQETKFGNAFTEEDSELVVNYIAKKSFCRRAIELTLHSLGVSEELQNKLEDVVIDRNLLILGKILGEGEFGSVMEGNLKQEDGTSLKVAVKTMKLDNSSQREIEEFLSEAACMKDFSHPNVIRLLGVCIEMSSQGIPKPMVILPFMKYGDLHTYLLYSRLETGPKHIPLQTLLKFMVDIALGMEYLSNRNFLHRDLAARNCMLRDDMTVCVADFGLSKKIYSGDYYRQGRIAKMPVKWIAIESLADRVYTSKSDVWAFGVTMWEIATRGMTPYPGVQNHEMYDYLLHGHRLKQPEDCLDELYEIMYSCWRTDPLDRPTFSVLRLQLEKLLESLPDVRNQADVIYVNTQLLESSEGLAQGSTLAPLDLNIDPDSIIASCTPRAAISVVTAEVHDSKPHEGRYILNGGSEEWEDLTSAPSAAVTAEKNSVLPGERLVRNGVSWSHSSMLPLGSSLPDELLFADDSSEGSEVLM

SRC (human) = SRC (human) (UniProt P12931)
CDK9 CCNK (human) = CDK9 CCNK (human) (UniProt O75909+P50750)
DYRK1A (human) = DYRK1A (human) (UniProt Q13627)
FGFR2 (human) = FGFR2 (human) (UniProt P21802)
FGFR2 (human), sequence (P21802 whole entry, looked up): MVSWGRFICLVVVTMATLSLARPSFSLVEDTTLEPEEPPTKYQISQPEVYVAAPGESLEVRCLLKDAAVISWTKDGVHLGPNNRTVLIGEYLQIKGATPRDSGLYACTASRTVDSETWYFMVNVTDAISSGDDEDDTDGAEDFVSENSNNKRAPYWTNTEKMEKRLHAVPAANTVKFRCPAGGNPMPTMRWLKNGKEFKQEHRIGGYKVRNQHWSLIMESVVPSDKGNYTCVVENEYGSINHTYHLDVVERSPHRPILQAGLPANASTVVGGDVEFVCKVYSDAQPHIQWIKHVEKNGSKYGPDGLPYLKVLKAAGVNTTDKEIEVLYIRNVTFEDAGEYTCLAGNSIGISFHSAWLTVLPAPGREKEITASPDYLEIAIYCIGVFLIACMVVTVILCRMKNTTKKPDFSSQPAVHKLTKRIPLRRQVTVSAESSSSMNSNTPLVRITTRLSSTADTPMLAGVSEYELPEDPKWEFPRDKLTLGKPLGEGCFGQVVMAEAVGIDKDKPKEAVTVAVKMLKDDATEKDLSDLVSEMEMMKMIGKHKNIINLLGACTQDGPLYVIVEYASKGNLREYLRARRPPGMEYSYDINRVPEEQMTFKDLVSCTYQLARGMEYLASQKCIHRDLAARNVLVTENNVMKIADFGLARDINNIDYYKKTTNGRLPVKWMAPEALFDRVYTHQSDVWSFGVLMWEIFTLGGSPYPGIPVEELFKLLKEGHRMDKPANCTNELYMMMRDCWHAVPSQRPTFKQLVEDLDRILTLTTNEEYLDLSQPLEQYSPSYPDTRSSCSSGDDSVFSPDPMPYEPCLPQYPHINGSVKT

PTK2B (human) = PTK2B (human) (UniProt Q14289)
EPHA4 (human) = EPHA4 (human) (UniProt P54764)
CSF1R (human) = CSF1R (human) (UniProt P07333)
RPS6KA5 KD2 (human) = RPS6KA5 KD2 (human) (UniProt O75582)
NEK11 (human) = NEK11 (human) (UniProt Q8NG66)
MAP3K2 (human) = MAP3K2 (human) (UniProt Q9Y2U5)
SRMS (human) = SRMS (human) (UniProt Q9H3Y6)
CAMK2D (human) = CAMK2D (human) (UniProt Q13557)
CDK6 CCND1 (human) = CDK6 CCND1 (human) (UniProt Q00534+P24385)
MAP2K2 (human) = MAP2K2 (human) (UniProt P36507)
HIPK1 (human) = HIPK1 (human) (UniProt Q86Z02)
TSSK2 (human) = TSSK2 (human) (UniProt Q96PF2)
CLK1 (human) = CLK1 (human) (UniProt P49759)
CDK3 CCNE1 (human) = CDK3 CCNE1 (human) (UniProt Q00526+P24864)
CAMK1G (human) = CAMK1G (human) (UniProt Q96NX5)
GSK3A (human) = GSK3A (human) (UniProt P49840)
NEK4 (human) = NEK4 (human) (UniProt P51957)
NEK4 (human), sequence (P51957 whole entry, looked up): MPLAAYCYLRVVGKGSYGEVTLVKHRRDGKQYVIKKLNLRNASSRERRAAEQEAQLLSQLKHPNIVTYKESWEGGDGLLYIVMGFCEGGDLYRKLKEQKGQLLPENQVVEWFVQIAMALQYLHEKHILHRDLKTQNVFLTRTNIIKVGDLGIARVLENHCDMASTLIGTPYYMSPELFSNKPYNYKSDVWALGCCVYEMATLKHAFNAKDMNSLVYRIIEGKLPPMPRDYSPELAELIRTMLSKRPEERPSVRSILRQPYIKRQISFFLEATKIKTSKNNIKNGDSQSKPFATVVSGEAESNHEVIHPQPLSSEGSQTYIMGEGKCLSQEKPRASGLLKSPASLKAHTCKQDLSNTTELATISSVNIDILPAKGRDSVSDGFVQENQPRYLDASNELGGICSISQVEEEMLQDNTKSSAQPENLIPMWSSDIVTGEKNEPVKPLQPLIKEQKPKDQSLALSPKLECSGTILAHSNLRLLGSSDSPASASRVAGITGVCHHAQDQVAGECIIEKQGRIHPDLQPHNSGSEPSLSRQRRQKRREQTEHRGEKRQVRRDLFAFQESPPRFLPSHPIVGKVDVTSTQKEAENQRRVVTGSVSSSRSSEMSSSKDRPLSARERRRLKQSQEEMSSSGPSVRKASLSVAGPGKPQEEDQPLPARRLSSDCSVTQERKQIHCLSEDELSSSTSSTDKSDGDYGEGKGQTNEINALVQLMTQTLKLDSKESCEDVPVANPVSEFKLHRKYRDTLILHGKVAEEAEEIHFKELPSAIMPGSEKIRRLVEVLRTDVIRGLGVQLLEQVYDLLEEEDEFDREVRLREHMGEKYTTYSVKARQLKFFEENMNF

ABL1 (human) = ABL1 (human) (UniProt P00519)
RPS6KA4 KD2 (human) = RPS6KA4 KD2 (human) (UniProt O75676)
PTK6 (human) = PTK6 (human) (UniProt Q13882)
EPHB4 (human) = EPHB4 (human) (UniProt P54760)
FYN (human) = FYN (human) (UniProt P06241)
CDK6 CCND3 (human) = CDK6 CCND3 (human) (UniProt P30281+Q00534)
TAOK2 (human) = TAOK2 (human) (UniProt Q9UL54)
PLK2 (human) = PLK2 (human) (UniProt Q9NYY3)

WNK2 (human), sequence (Q9Y3S1 whole entry, looked up): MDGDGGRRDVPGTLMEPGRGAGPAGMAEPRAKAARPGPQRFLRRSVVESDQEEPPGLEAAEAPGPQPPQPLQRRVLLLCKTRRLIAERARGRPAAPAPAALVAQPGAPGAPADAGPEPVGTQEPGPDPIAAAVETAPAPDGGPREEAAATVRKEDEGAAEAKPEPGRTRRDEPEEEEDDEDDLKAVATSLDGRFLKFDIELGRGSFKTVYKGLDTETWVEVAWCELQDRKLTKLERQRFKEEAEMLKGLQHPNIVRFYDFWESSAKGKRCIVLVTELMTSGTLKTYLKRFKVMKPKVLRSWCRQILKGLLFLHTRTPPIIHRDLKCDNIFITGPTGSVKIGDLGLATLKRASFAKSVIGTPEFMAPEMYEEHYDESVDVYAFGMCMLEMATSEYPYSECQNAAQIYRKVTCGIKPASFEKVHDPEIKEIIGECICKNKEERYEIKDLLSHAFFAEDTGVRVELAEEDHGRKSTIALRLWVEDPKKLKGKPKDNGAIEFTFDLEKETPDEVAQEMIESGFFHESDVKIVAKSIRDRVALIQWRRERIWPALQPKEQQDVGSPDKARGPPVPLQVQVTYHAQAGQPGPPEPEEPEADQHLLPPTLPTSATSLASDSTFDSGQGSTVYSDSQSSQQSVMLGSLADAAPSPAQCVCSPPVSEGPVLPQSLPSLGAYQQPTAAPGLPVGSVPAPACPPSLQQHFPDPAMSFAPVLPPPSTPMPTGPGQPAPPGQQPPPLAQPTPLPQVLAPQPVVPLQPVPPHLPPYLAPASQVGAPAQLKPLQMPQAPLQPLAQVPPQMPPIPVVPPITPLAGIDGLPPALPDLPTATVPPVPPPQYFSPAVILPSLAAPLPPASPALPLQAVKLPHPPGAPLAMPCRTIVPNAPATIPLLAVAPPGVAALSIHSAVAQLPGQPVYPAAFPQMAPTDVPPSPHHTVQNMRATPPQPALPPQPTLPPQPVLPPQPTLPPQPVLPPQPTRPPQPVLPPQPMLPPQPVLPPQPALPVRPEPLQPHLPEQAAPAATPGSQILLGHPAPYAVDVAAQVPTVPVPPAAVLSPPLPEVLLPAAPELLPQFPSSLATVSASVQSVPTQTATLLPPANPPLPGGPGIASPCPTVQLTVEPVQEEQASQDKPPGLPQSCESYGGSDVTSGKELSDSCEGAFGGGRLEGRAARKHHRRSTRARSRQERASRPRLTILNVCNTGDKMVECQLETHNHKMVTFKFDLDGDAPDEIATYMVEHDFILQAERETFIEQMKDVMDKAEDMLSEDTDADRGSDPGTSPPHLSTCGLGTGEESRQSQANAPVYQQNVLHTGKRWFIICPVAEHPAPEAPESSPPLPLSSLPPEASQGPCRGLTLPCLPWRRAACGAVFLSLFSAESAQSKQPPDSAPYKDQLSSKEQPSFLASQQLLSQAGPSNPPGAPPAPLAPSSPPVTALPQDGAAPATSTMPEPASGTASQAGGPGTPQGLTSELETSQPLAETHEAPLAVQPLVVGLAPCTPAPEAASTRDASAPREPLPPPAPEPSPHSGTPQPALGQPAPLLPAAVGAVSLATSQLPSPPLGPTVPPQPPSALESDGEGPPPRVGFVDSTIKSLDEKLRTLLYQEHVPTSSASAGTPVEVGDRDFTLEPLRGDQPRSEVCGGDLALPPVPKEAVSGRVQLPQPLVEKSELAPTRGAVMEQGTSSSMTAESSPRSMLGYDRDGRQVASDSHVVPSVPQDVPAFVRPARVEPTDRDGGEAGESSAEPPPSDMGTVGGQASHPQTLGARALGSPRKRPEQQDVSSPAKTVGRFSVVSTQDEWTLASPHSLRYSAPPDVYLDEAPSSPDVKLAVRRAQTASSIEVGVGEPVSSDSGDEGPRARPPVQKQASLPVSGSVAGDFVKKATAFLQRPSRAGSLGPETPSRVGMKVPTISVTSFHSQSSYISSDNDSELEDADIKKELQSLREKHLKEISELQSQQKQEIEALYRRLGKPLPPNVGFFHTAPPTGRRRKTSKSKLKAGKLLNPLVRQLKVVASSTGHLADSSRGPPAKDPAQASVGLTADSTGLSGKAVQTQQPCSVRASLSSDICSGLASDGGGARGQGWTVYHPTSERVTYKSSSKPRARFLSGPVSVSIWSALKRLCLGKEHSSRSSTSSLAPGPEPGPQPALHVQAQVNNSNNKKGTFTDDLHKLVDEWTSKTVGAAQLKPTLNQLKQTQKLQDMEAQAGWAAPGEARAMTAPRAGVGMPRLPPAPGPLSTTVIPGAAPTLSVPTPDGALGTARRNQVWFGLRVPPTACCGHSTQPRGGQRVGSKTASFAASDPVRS

`Nc1ccc2ncnc(NCCc3ccc(Oc4ccccc4)cc3)c2c1` was tested, and the residual activity (BRSK2 (human)) was 102%, the residual activity (TEC (human)) was 88.3% and the residual activity (WNK2 (human)) was 96.7%. The residual activity (CDK7 CCNH MNAT1 (human)) was 99.3%, the residual activity (ACVRL1 (human)) was 93.5% and the residual activity (CAMK2G (human)) was 118%. The residual activity (SLK (human)) was 102%, the residual activity (MAP3K10 (human)) was 91.9% and the residual activity (MAP4K5 (human)) was 94.8%. It also gave a residual activity (CSNK1A1 (human)) of 102%, a residual activity (RPS6KA2 KD1 KD2 (human)) of 100% and a residual activity (MERTK (human)) of 102%. For the same molecule, the residual activity (SRC (human)) was 102%, the residual activity (CDK9 CCNK (human)) was 104% and the residual activity (DYRK1A (human)) was 101%. The residual activity (FGFR2 (human)) was 95.5%, the residual activity (PTK2B (human)) was 95% and the residual activity (EPHA4 (human)) was 98.5%. It also gave a residual activity (CSF1R (human)) of 106%, a residual activity (RPS6KA5 KD2 (human)) of 98.3% and a residual activity (NEK11 (human)) of 105%. It also gave a residual activity (MAP3K2 (human)) of 98.4%, a residual activity (SRMS (human)) of 99.2% and a residual activity (CAMK2D (human)) of 98.9%. The residual activity (CDK6 CCND1 (human)) was 101%, the residual activity (MAP2K2 (human)) was 94.9% and the residual activity (HIPK1 (human)) was 104%. The residual activity (TSSK2 (human)) was 94.5%, the residual activity (CLK1 (human)) was 101% and the residual activity (CDK3 CCNE1 (human)) was 94.8%. It also gave a residual activity (CAMK1G (human)) of 102%, a residual activity (GSK3A (human)) of 110% and a residual activity (NEK4 (human)) of 97.8%. For the same molecule, the residual activity (ABL1 (human)) was 89.7%, the residual activity (RPS6KA4 KD2 (human)) was 107% and the residual activity (PTK6 (human)) was 93.3%. It also gave a residual activity (EPHB4 (human)) of 104%, a residual activity (FYN (human)) of 103% and a residual activity (CDK6 CCND3 (human)) of 100%. It also gave a residual activity (TAOK2 (human)) of 102% and a residual activity (PLK2 (human)) of 102%.
For `Nc1ncnc2[nH]nc(Nc3ccc(F)cc3)c12`, the residual activity (BRSK2 (human)) was 60.6%, the residual activity (TEC (human)) was 86% and the residual activity (WNK2 (human)) was 110%. It also gave a residual activity (CDK7 CCNH MNAT1 (human)) of 98.4%, a residual activity (ACVRL1 (human)) of 108% and a residual activity (CAMK2G (human)) of 119%. The residual activity (SLK (human)) was 99.5%, the residual activity (MAP3K10 (human)) was 85.9% and the residual activity (MAP4K5 (human)) was 52%. For the same molecule, the residual activity (CSNK1A1 (human)) was 90.3%, the residual activity (RPS6KA2 KD1 KD2 (human)) was 70.6% and the residual activity (MERTK (human)) was 90.7%. The residual activity (SRC (human)) was 89.6%, the residual activity (CDK9 CCNK (human)) was 92.4% and the residual activity (DYRK1A (human)) was 86.4%. The residual activity (FGFR2 (human)) was 97.2%, the residual activity (PTK2B (human)) was 101% and the residual activity (EPHA4 (human)) was 90.1%. It also gave a residual activity (CSF1R (human)) of 101%, a residual activity (RPS6KA5 KD2 (human)) of 96.7% and a residual activity (NEK11 (human)) of 102%. The residual activity (MAP3K2 (human)) was 95.6%, the residual activity (SRMS (human)) was 104% and the residual activity (CAMK2D (human)) was 92.5%. For the same molecule, the residual activity (CDK6 CCND1 (human)) was 96.6%, the residual activity (MAP2K2 (human)) was 90% and the residual activity (HIPK1 (human)) was 106%. The residual activity (TSSK2 (human)) was 90.8%, the residual activity (CLK1 (human)) was 102% and the residual activity (CDK3 CCNE1 (human)) was 104%. The residual activity (CAMK1G (human)) was 97.2%, the residual activity (GSK3A (human)) was 88.6% and the residual activity (NEK4 (human)) was 92.8%. It also gave a residual activity (ABL1 (human)) of 88.1%, a residual activity (RPS6KA4 KD2 (human)) of 114% and a residual activity (PTK6 (human)) of 68.3%. The residual activity (EPHB4 (human)) was 87.8%, the residual activity (FYN (human)) was 93% and the residual activity (CDK6 CCND3 (human)) was 99.6%. The residual activity (TAOK2 (human)) was 97.3% and the residual activity (PLK2 (human)) was 101%.
In the case of `CO[C@H]1CC2CC[C@@H](C)[C@@](O)(O2)C(=O)C(=O)N2CCCC[C@H]2C(=O)OC([C@H](C)C[C@@H]2CC[C@@H](O)[C@H](OC)C2)CC(=O)[C@H](C)/C=C(\C)[C@@H](O)[C@@H](OC)C(=O)[C@H](C)C[C@H](C)/C=C/C=C/C=C/1C` (some centres undefined), the residual activity (BRSK2 (human)) is reported as 109%, the residual activity (TEC (human)) is reported as 138% and the residual activity (WNK2 (human)) is reported as 103%. For the same molecule, the residual activity (CDK7 CCNH MNAT1 (human)) was 98.2%, the residual activity (ACVRL1 (human)) was 97.9% and the residual activity (CAMK2G (human)) was 101%. For the same molecule, the residual activity (SLK (human)) was 98.7%, the residual activity (MAP3K10 (human)) was 109% and the residual activity (MAP4K5 (human)) was 110%. For the same molecule, the residual activity (CSNK1A1 (human)) was 99.3%, the residual activity (RPS6KA2 KD1 KD2 (human)) was 89.5% and the residual activity (MERTK (human)) was 90.9%. For the same molecule, the residual activity (SRC (human)) was 96%, the residual activity (CDK9 CCNK (human)) was 106% and the residual activity (DYRK1A (human)) was 94.3%. It also gave a residual activity (FGFR2 (human)) of 110%, a residual activity (PTK2B (human)) of 94.2% and a residual activity (EPHA4 (human)) of 115%. It also gave a residual activity (CSF1R (human)) of 101%, a residual activity (RPS6KA5 KD2 (human)) of 106% and a residual activity (NEK11 (human)) of 73.6%. It also gave a residual activity (MAP3K2 (human)) of 94.8%, a residual activity (SRMS (human)) of 108% and a residual activity (CAMK2D (human)) of 96.1%. It also gave a residual activity (CDK6 CCND1 (human)) of 99.8%, a residual activity (MAP2K2 (human)) of 103% and a residual activity (HIPK1 (human)) of 99.1%. For the same molecule, the residual activity (TSSK2 (human)) was 99.8%, the residual activity (CLK1 (human)) was 107% and the residual activity (CDK3 CCNE1 (human)) was 102%. The residual activity (CAMK1G (human)) was 93%, the residual activity (GSK3A (human)) was 106% and the residual activity (NEK4 (human)) was 97.2%. It also gave a residual activity (ABL1 (human)) of 103%, a residual activity (RPS6KA4 KD2 (human)) of 91.8% and a residual activity (PTK6 (human)) of 88%. It also gave a residual activity (EPHB4 (human)) of 89.5%, a residual activity (FYN (human)) of 109% and a residual activity (CDK6 CCND3 (human)) of 105%. For the same molecule, the residual activity (TAOK2 (human)) was 97.6% and the residual activity (PLK2 (human)) was 105%.
With `CCOC(=O)c1c(C)[nH]c(/C=C2\C(=O)Nc3ccccc32)c1C` the residual activity (BRSK2 (human)) was 98.7%, the residual activity (TEC (human)) was 141% and the residual activity (WNK2 (human)) was 100%. The residual activity (CDK7 CCNH MNAT1 (human)) was 96.8%, the residual activity (ACVRL1 (human)) was 94.8% and the residual activity (CAMK2G (human)) was 97.6%. For the same molecule, the residual activity (SLK (human)) was 89.8%, the residual activity (MAP3K10 (human)) was 98.5% and the residual activity (MAP4K5 (human)) was 84.3%. The residual activity (CSNK1A1 (human)) was 98.6%, the residual activity (RPS6KA2 KD1 KD2 (human)) was 71.4% and the residual activity (MERTK (human)) was 69.3%. The residual activity (SRC (human)) was 93.8%, the residual activity (CDK9 CCNK (human)) was 97.5% and the residual activity (DYRK1A (human)) was 95.7%. For the same molecule, the residual activity (FGFR2 (human)) was 97.9%, the residual activity (PTK2B (human)) was 80.6% and the residual activity (EPHA4 (human)) was 80.3%. The residual activity (CSF1R (human)) was 52.5%, the residual activity (RPS6KA5 KD2 (human)) was 91.8% and the residual activity (NEK11 (human)) was 96.6%. The residual activity (MAP3K2 (human)) was 108%, the residual activity (SRMS (human)) was 104% and the residual activity (CAMK2D (human)) was 93.9%. For the same molecule, the residual activity (CDK6 CCND1 (human)) was 89.7%, the residual activity (MAP2K2 (human)) was 102% and the residual activity (HIPK1 (human)) was 97.3%. For the same molecule, the residual activity (TSSK2 (human)) was 95.9%, the residual activity (CLK1 (human)) was 98.2% and the residual activity (CDK3 CCNE1 (human)) was 94%. The residual activity (CAMK1G (human)) was 98.2%, the residual activity (GSK3A (human)) was 93.5% and the residual activity (NEK4 (human)) was 95.1%. The residual activity (ABL1 (human)) was 95.4%, the residual activity (RPS6KA4 KD2 (human)) was 87% and the residual activity (PTK6 (human)) was 82.8%. The residual activity (EPHB4 (human)) was 89.5%, the residual activity (FYN (human)) was 97.3% and the residual activity (CDK6 CCND3 (human)) was 84.7%. For the same molecule, the residual activity (TAOK2 (human)) was 105% and the residual activity (PLK2 (human)) was 102%.
